Measurements taken from patent US9604973B2, “Anti-cancer polyketide compounds” (priority 2012, dated 2017).
“Also recorded” adds a separate entry of the source.

Legend:
Type in all cases: cell-based, human
[1] = tested on: normal B lymphocytes from healthy donor; assay: Flow cytometry, % specific induced apoptosis in normal B lymphocytes; settings: 48 hours
Experimental: (§1) FIG. 20A-20C: FD-895 and PLAD induce apoptosis in CLL cells but not in normal lymphocytes with a TP53 independent activity: Primary leukemia B cells from CLL (FIG. 20A) patient with del (17p) and Tp53 mutation, (FIG. 20B) patient with wild type p53 and sensitive to F-Ara-A and (FIG. 20C) normal lymphocytes from healthy donor were incubated with FD-895, PLAD and F-Ara-A (0, 10, 100, 1000 10,000 nM) for 48 hours.
(§2) FIG. 21: FD-895 and PLAD induce apoptosis in CLL cells not ONLY independently of Tp53 but also independently of SF3B1 mutational status: Primary leukemia B cells from CLL patient with SF3B1 wild, SF3B1 mutation, 17p DEL and normal B and T lymphocytes from healthy donor were incubated with FD-895 and PLAD with 100 nM for 48 hours. After incubation, the samples were harvested and % SIA was measured by flow cytometry as described above. […] Each dots represents number of CLL patient sample and normal B or T cells.
Normal B cells were purified from buffy coats of healthy volunteers, obtained from San Diego blood bank. Positive isolation with Dynabeads® CD19 pan B and DETACHaBEAD CD19 (Invitrogen Life Technologies, USA) were used to achieve more than 95% purity by flow cytometry analysis.
(§3) Apoptotic and viable cells were discriminated via flow cytometry of cells stained with 3,3′ dihexyloxacarbocyanine iodide (DiOC6) (Molecular Probes, Eugene, Oreg., USA) and propidium iodine (Sigma, St Louis, Mo., USA), as described.^3 Using this method viable cells exclude PI and stain brightly positive for DiOC6.

CLL cells = assay: Flow cytometry, % specific induced apoptosis (DiOC6/PI) in primary CLL cells; settings: 48 hours
Experimental: as §1, §2
Peripheral blood mononuclear cells (PBMC) from patients with CLL were obtained from the CLL Research Consortium (CRC) tissue bank. The blood samples were collected after obtaining a written informed consent from the patients under a protocol approved by the institutional review board of The University of California, San Diego. All patients met criteria for CLL.^1 CLL B cells and PBMCs were separated from heparinized venous blood of the B-CLL patients by density gradient centrifugation using Ficoll-Hypaque (GE healthcare) as described earlier.^2 The samples that were used had more than 95% positive cells for CD19 and CD5+, as assessed by flow cytometry. CLL B cells were maintained in RPMI 1640 medium supplemented with 10% FBS, 2 mM L-glutamine, and 100 U/mL of penicillin and 100 μg/mL of streptomycin at 37° C. in an atmosphere of 5% CO2.
as §3

DNAJB1 = assay: RT-PCR of spliced and unspliced mRNA (intron retention) in CLL cells; settings: 4 hours, FD-895, PLAD 10, 100 nM, bendamustine 33, 100 μM, F-Ara-A 3, 10, 33 μM
Experimental: FIG. 23: FD-895 and PLAD induced inhibition of splicing in CLL: RT-PCR for analysis of spliced and unspliced mRNAs. CLL cells treated with FD-895, PLAD (10, 100 nM), chemotherapeutic agent like bendamustine (33, 100 μM) and F-Ara-A (3, 10, 33 μM) for 4 hours. RT-PCR for DNAJB1 was performed with primers spanning two exons; products were analyzed on ethidium bromide-stained agarose gels (2%) to visualize the correct size of the unspliced mRNAs. […] The exon structure of DNAJB1 gene is indicated. G, human genomic DNA was used as a control; U, unspliced mRNA; S, spliced mRNA.
CLL cells were treated with 10 and 100 nM of FD-895 and PLAD, 33 and 100 μM of bendamustine and 3, 10, and 33 μM of F-Ara-A for 4 h. Normal B and CLL cells were treated with 100 nM of FD-895 and PLAD and 10 μM of F-Ara-A for 15 minutes, 30 minutes, 1, 2 and 4 h. Total RNA was extracted using mirVana™ miRNA isolation kit (Ambion Life Technology, USA). After DNase treatment, 200 ng total RNA was reverse-transcribed using a SuperScript™ III first-strand synthesis system (Invitrogen). PCR was performed on 10 ng of the obtained cDNA (or human genomic DNA as a control) in 25 μl of reaction mixture containing Plantinum® PCR SuperMix High-fidelity (Invitrogen Life Technology, USA), and 0.1 μM of each primer of the appropriate pair.
PCR conditions were 94° C. for 3 min; 35 cycles of 94° C. for 30 s, 60° C. for 30 s, and 72° C. for 1 min; followed by 72° C. for 5 min. PCR products were separated on a 2% agarose gel and stained with ethidium bromide.

RIOK3 = assay: Quantitative RT-PCR of unspliced mRNA in CLL cells; settings: 10 nM, 4 hours
Experimental: Quantitative RT-PCR using primers specific for each intron quantified unspliced mRNA for DNAJB1 (FIG. 25A) and RIOK3 (FIG. 25B). GAPDH was used for normalization. […] Error bars indicate S.D.
CLL cells were treated with 100 nM of FD-895 and PLAD and 10 μM of F-Ara-A for 15 minutes, 1 and 4 h. Normal B and CLL cells were treated with 10, 100, and 1000 nM of FD-895 and PLAD and 10 μM of F-Ara-A for 4 h.
Extraction of total RNA and cDNA synthesis were performed as described earlier. Unspliced mRNA was quantified using a 7900HT fast Real Time PCR System (Applied Biosystems). The amounts of unspliced mRNA of DNAJB1, and RIOK3 were determined by SYBR green (Power SYBR Green PCR Master Mix, Applied Biosystems) real-time quantitative RT-PCR using specific primers designed for the intron of each gene (see additional information section at the end).
PCR using 0.2 μM of each primer was performed on 20 ng of the obtained cDNA. PCR conditions were 50° C. for 2 min; 95° C. for 10 min; 35 cycles of 94° C. for 20 s, 55° C. for 20 s, followed by 72° C. for 30 s. The mRNA levels were calculated using 2^−ΔΔCT method.^4 GAPDH was used as a control for normalization.

[2] = B cells from healthy donors, 0-10,000 nM
[3] = normal B cells from healthy donors, 100 nM
[4] = CLL patients with 17p DEL, 100 nM
[5] = CLL patients with SF3B1 mutation, 100 nM
[6] = CLL patients with SF3B1 wild, 100 nM
[7] = CLL patients with Tp53 mutation (so in the source)
[8] = CLL patients with del (17p), 0-10,000 nM

Compound | apoptosis (% SIA) [1, 2] | apoptosis (% SIA) [1, 3] | apoptosis (% SIA) (CLL cells; [4]) | apoptosis (% SIA) (CLL cells; [5]) | apoptosis (% SIA) (CLL cells; [6]) | apoptosis (% SIA) (CLL cells; [7]) | apoptosis (% SIA) (CLL cells; [8]) | intron retention/splicing inhibition of DNAJB1 (DNAJB1) | unspliced mRNA of RIOK3 (RIOK3)
CCC(OC)C(C)C1OC1C(O)C(C)/C=C/C=C(\C)C1OC(=O)CC(O)CCC(C)(O)C(OC(C)=O)/C=C/C1C (stereo not drawn) [FD-895] | did not induce significant apoptosis | did not induce significant cell death; also recorded: did not show significant apoptosis | significant cells death; also recorded: induced apoptosis | significant cells death; also recorded: induced apoptosis | significant cells death | significant death | significant killing | showed intron retention at low concentration | clear increase in unspliced mRNA
Pladienolide B | did not induce significant apoptosis | did not induce significant cell death; also recorded: did not show significant apoptosis | significant cells death; also recorded: induced apoptosis | significant cells death; also recorded: induced apoptosis | significant cells death | significant death | significant killing | showed intron retention at low concentration | clear increase in unspliced mRNA
